Values joined by “and” are separate entries in the source; they are usually repeats but may differ in a detail not shown here. Equal entries are not always repeated. Inconclusive results and toxic doses are left out. The calls were made as follows: active = survival T/C of 150% or more; inactive = T/C below 125% in these data.
System: CD2F1 mice, L1210 leukemia ip, survival T/C
Assay: NCI In Vivo Anticancer Drug Screen. Data for tumor model L1210 Leukemia (intraperitoneal) in CD2F1 (CDF1) mice
Conditions: higher = longer survival
Procedure, shortened: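 Activity against a transplanted murine tumor was judged by comparing the compound group with a vehicle group. The outcome in the treated animals was divided by that in the controls.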

[1] = endpoint: mean survival time, dose: 100.0 mg/kg/injection, schedule: Q01DX009 (ip), vehicle: saline with Tween-80
[2] = endpoint: mean survival time, dose: 200.0 mg/kg/injection, schedule: Q01DX009 (ip), vehicle: saline with Tween-80
[3] = endpoint: mean survival time, dose: 400.0 mg/kg/injection, schedule: Q01DX009 (ip), vehicle: saline with Tween-80
[4] = endpoint: mean survival time, dose: 100.0 mg/kg/injection, schedule: Q01DX001 (ip), vehicle: saline with Tween-80
[5] = endpoint: mean survival time, dose: 200.0 mg/kg/injection, schedule: Q01DX001 (ip), vehicle: saline with Tween-80
[6] = endpoint: mean survival time, dose: 100.0 mg/kg/injection, schedule: Q01DX001 (ip), vehicle: saline
[7] = endpoint: mean survival time, dose: 200.0 mg/kg/injection, schedule: Q01DX001 (ip), vehicle: saline
[8] = endpoint: mean survival time, dose: 5.0 mg/kg/injection, schedule: Q01DX009 (ip), vehicle: saline with Tween-80
[9] = endpoint: mean survival time, dose: 10.0 mg/kg/injection, schedule: Q01DX009 (ip), vehicle: saline with Tween-80
[10] = endpoint: mean survival time, dose: 20.0 mg/kg/injection, schedule: Q01DX009 (ip), vehicle: saline with Tween-80

Measured: T/C

Nc1ncnc2c1ccn2C1OC(CO)C2[O][Sn]([c]3ccccc3)([c]3ccccc3)[O]C21 (stereo unspecified)
inactive: endpoint: mean survival time, dose: 0.78 mg/kg/injection, schedule: Q01DX005 (ip), vehicle: other 110 % of control | endpoint: mean survival time, dose: 1.56 mg/kg/injection, schedule: Q01DX005 (ip), vehicle: other 113 % of control | endpoint: mean survival time, dose: 3.13 mg/kg/injection, schedule: Q01DX005 (ip), vehicle: other 111 % of control | endpoint: mean survival time, dose: 6.25 mg/kg/injection, schedule: Q01DX005 (ip), vehicle: other 90 % of control

CC1OC(n2ccc(=O)[nH]c2=O)C(O)C(O)C1=O (stereo unspecified)
inactive: endpoint: median survival time, dose: 26.5 mg/kg/injection, schedule: Q01DX005 (ip), vehicle: Klucel (hydroxypropylcellulose) (HPC) 102 % of control | endpoint: median survival time, dose: 53.0 mg/kg/injection, schedule: Q01DX005 (ip), vehicle: Klucel (hydroxypropylcellulose) (HPC) 100 % of control | endpoint: median survival time, dose: 106.0 mg/kg/injection, schedule: Q01DX005 (ip), vehicle: Klucel (hydroxypropylcellulose) (HPC) 107 % of control | endpoint: median survival time, dose: 212.0 mg/kg/injection, schedule: Q01DX005 (ip), vehicle: Klucel (hydroxypropylcellulose) (HPC) 101 % of control

Cc1cn(C2CC(O)C(CO)O2)c(=O)nc1NCc1ccco1 (stereo unspecified)
inactive: endpoint: median survival time, dose: 12.5 mg/kg/injection, schedule: Q01DX005 (ip), vehicle: water 103 % of control | endpoint: median survival time, dose: 25.0 mg/kg/injection, schedule: Q01DX005 (ip), vehicle: water 103 % of control | endpoint: median survival time, dose: 50.0 mg/kg/injection, schedule: Q01DX005 (ip), vehicle: water 104 % of control | endpoint: median survival time, dose: 100.0 mg/kg/injection, schedule: Q01DX005 (ip), vehicle: water 105 % of control | endpoint: median survival time, dose: 200.0 mg/kg/injection, schedule: Q01DX005 (ip), vehicle: water 102 % of control

O=C1C=CC(=O)N1c1ccc(Cl)cc1 (tested in a mixture with another compound)
inactive: [1] 93 % of control | [2] 87 % of control | [3] 98 % of control

CC1=CC(=C2C=C(C)C(=O)C(C)=C2)C=C(C)C1=O
inactive: endpoint: mean survival time, dose: 50.0 mg/kg/injection, schedule: Q01DX001 (ip), vehicle: saline with Tween-80 87 % of control | [4] 87 % of control | [5] 91 % of control

O=C(NCCO)c1cccnc1
inactive: endpoint: mean survival time, dose: 75.0 mg/kg/injection, schedule: Q04DX003 (ip), vehicle: saline sonified 103 % of control | endpoint: mean survival time, dose: 150.0 mg/kg/injection, schedule: Q04DX003 (ip), vehicle: saline sonified 97 % of control | endpoint: mean survival time, dose: 300.0 mg/kg/injection, schedule: Q04DX003 (ip), vehicle: saline sonified 97 % of control | endpoint: mean survival time, dose: 600.0 mg/kg/injection, schedule: Q04DX003 (ip), vehicle: saline sonified 102 % of control

CCCCC(CC)C(=O)[O][Sn]([CH2]CCC)([CH2]CCC)[O]C(=O)C(CC)CCCC (stereo unspecified)
inactive: endpoint: mean survival time, dose: 1.5 mg/kg/injection, schedule: Q01DX009 (ip), vehicle: saline with Tween-80 100 % of control | endpoint: mean survival time, dose: 3.0 mg/kg/injection, schedule: Q01DX009 (ip), vehicle: saline with Tween-80 100 % of control | endpoint: mean survival time, dose: 6.0 mg/kg/injection, schedule: Q01DX009 (ip), vehicle: saline with Tween-80 104 % of control | endpoint: mean survival time, dose: 6.25 mg/kg/injection, schedule: Q04DX003 (ip), vehicle: saline with Tween-80 105 % of control

CCC[S][Pb]([c]1ccccc1)([c]1ccccc1)[c]1ccccc1
inactive: endpoint: mean survival time, dose: 10.0 mg/kg/injection, schedule: Q01DX001 (ip), vehicle: Klucel (hydroxypropylcellulose) (HPC) 98 % of control | endpoint: mean survival time, dose: 20.0 mg/kg/injection, schedule: Q01DX001 (ip), vehicle: Klucel (hydroxypropylcellulose) (HPC) 101 % of control | endpoint: mean survival time, dose: 40.0 mg/kg/injection, schedule: Q01DX001 (ip), vehicle: Klucel (hydroxypropylcellulose) (HPC) 104 % of control

C1CC[N-]CC1.C1CC[N-]CC1.[Cl][Pt+2]([Cl])([Cl])[Cl]
inactive: endpoint: mean survival time, dose: 100.0 mg/kg/injection, schedule: Q04DX003 (ip), vehicle: saline with Tween-80 97 % of control | endpoint: mean survival time, dose: 200.0 mg/kg/injection, schedule: Q04DX003 (ip), vehicle: saline with Tween-80 92 % of control | endpoint: mean survival time, dose: 400.0 mg/kg/injection, schedule: Q04DX003 (ip), vehicle: saline with Tween-80 93 % of control

O=CC(O)C(O)C(O)CO (stereo unspecified)
inactive: [6] 96 % of control | [7] 93 % of control | endpoint: mean survival time, dose: 400.0 mg/kg/injection, schedule: Q01DX001 (ip), vehicle: saline 98 % of control

Nc1nc(SSc2nc(N)nc3c2ncn3C2OC(CO)CC2O)c2ncn(C3OC(CO)CC3O)c2n1 (stereo unspecified)
inactive: endpoint: mean survival time, dose: 300.0 mg/kg/injection, schedule: Q01DX001 (ip), vehicle: saline 118 % of control

N/N=C(\N)c1ccccc1
inactive: [6] 117 % of control | [7] 123 % of control

O=C(O)C1C2CCC1C(O)C2 (stereo unspecified)
inactive: [1] 94 % of control | [2] 94 % of control | [3] 88 % of control

C[N+](C)(C)Cc1ccccc1
inactive: endpoint: mean survival time, dose: 3.13 mg/kg/injection, schedule: Q01DX009 (ip), vehicle: saline with Tween-80 97 % of control | endpoint: mean survival time, dose: 6.25 mg/kg/injection, schedule: Q01DX009 (ip), vehicle: saline with Tween-80 97 % of control | endpoint: mean survival time, dose: 12.5 mg/kg/injection, schedule: Q01DX009 (ip), vehicle: saline with Tween-80 95 % of control | endpoint: mean survival time, dose: 12.5 mg/kg/injection, schedule: Q04DX003 (ip), vehicle: saline 104 % of control

O=C(/C=C/c1ccccc1Cl)c1ccccc1[N+](=O)[O-]
inactive: [1] 89 % of control | [2] 94 % of control | [3] 95 % of control

O=C(COc1ccccc1)NC(=S)Nc1ccc([N+](=O)[O-])cc1Cl
inactive: [1] 88 % of control and 89 % of control | endpoint: mean survival time, dose: 100.0 mg/kg/injection, schedule: Q04DX002 (ip), vehicle: saline with Tween-80 95 % of control | [2] 93 % of control and 94 % of control | endpoint: mean survival time, dose: 200.0 mg/kg/injection, schedule: Q04DX002 (ip), vehicle: saline with Tween-80 87 % of control | [3] 92 % of control and 93 % of control | endpoint: mean survival time, dose: 400.0 mg/kg/injection, schedule: Q04DX002 (ip), vehicle: saline with Tween-80 91 % of control

CCCCCCCCCC[n+]1cccc(C(N)=O)c1
inactive: [8] 97 % of control | [9] 97 % of control | [10] 100 % of control

Nc1ncn(C2OC(COC(=O)c3ccccc3)C(OC(=O)c3ccccc3)C2OC(=O)c2ccccc2)n1 (stereo unspecified)
inactive: endpoint: median survival time, dose: 8.75 mg/kg/injection, schedule: Q01DX005 (ip), vehicle: distilled water + Tween-80 94 % of control | endpoint: median survival time, dose: 17.5 mg/kg/injection, schedule: Q01DX005 (ip), vehicle: distilled water + Tween-80 91 % of control | endpoint: median survival time, dose: 35.0 mg/kg/injection, schedule: Q01DX005 (ip), vehicle: distilled water + Tween-80 91 % of control | endpoint: median survival time, dose: 70.0 mg/kg/injection, schedule: Q01DX005 (ip), vehicle: distilled water + Tween-80 95 % of control | endpoint: median survival time, dose: 140.0 mg/kg/injection, schedule: Q01DX005 (ip), vehicle: distilled water + Tween-80 91 % of control

CCOC(=O)C(C(=O)OCC)C(C[N+](=O)[O-])c1ccccc1 (stereo unspecified)
inactive: endpoint: mean survival time, dose: 50.0 mg/kg/injection, schedule: Q01DX009 (ip), vehicle: saline 92 % of control | endpoint: mean survival time, dose: 100.0 mg/kg/injection, schedule: Q01DX009 (ip), vehicle: saline 116 % of control | endpoint: mean survival time, dose: 200.0 mg/kg/injection, schedule: Q01DX009 (ip), vehicle: saline 96 % of control

COc1ccc(/C=C/c2ccccc2)cc1
inactive: [4] 95 % of control | [5] 88 % of control | endpoint: mean survival time, dose: 400.0 mg/kg/injection, schedule: Q01DX001 (ip), vehicle: saline with Tween-80 86 % of control

CC(=O)OCC1OC(N2C(=O)/C(=C/c3ccc(Cl)cc3)SC2=S)C(OC(C)=O)C(OC(C)=O)C1OC(C)=O (stereo unspecified)
inactive: endpoint: mean survival time, dose: 3.13 mg/kg/injection, schedule: Q01DX005 (ip), vehicle: distilled water + Tween-80 102 % of control | endpoint: mean survival time, dose: 6.25 mg/kg/injection, schedule: Q01DX005 (ip), vehicle: distilled water + Tween-80 96 % of control | endpoint: mean survival time, dose: 12.5 mg/kg/injection, schedule: Q01DX005 (ip), vehicle: distilled water + Tween-80 106 % of control | endpoint: mean survival time, dose: 25.0 mg/kg/injection, schedule: Q01DX005 (ip), vehicle: distilled water + Tween-80 95 % of control

Cc1nccc2c1[nH]c1cc(N)ccc12.[Cl][Sn][Cl]
inactive: [8] 115 % of control | [9] 103 % of control | [10] 102 % of control

CC1(C)Nc2cc3c(cc2-n2cccc21)oc1ccccc13
inactive: endpoint: median survival time, dose: 50.0 mg/kg/injection, schedule: Q01DX005 (ip), vehicle: DMSO 98 % of control | endpoint: median survival time, dose: 100.0 mg/kg/injection, schedule: Q01DX005 (ip), vehicle: DMSO 103 % of control | endpoint: median survival time, dose: 200.0 mg/kg/injection, schedule: Q01DX005 (ip), vehicle: DMSO 100 % of control | endpoint: median survival time, dose: 400.0 mg/kg/injection, schedule: Q01DX005 (ip), vehicle: DMSO 101 % of control | endpoint: median survival time, dose: 800.0 mg/kg/injection, schedule: Q01DX005 (ip), vehicle: DMSO 103 % of control

From PubChem BioAssay AID256 (DTP/NCI, 2004)
